{"source": "paper PMC8836295", "about": "“Essential role of pyrophosphate homeostasis mediated by the pyrophosphate-dependent phosphofructokinase in Toxoplasma gondii” (PLoS Pathogens, 2022)", "molecular_target": "T1, PFK2-N (Toxoplasma gondii, UniProt A0A125YKV6)", "T1 construct": "gene PFKII; N-terminal phosphofructokinase domain, residues 1-595; recombinant, E. coli Transetta (DE3), plasmid pESUMO-PFK2N (His-SUMO vector), Ni2+ column", "T1 sequence (A0A125YKV6 1-595)": "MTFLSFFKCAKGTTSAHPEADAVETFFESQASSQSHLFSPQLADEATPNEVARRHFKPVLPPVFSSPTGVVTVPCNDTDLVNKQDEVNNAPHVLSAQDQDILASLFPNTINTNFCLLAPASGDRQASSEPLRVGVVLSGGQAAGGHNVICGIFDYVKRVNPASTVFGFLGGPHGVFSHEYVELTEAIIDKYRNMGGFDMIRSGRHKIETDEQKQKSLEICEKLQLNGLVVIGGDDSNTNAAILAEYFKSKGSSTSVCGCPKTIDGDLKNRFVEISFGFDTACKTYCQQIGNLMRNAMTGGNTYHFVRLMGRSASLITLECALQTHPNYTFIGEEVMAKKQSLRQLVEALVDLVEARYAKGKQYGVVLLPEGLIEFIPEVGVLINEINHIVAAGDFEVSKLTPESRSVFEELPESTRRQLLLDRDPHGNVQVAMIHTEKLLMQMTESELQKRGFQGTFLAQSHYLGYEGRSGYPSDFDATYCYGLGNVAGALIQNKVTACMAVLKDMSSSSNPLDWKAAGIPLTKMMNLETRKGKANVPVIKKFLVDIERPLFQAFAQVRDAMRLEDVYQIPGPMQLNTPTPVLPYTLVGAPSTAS", "test": "NADH-coupled OD340 assay (PFP activity kit)", "type": "biochemical", "conditions": "co-substrate F6P 4 mM", "data": [{"smiles": "O=P(O)(O)OP(=O)(O)O", "note": "[PPi]", "values": [{"measurement": "NADH-coupled OD340 assay (PFP activity kit)", "value": "individually purified and assayed for the PPi dependent PFK activity"}]}]}
